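Results reflect a 48-hour exposure of cells in 96-well plates to compound at five concentrations. The concentration for 50% growth inhibition is given as GI50.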 Active and inactive are the calls of the source. Cut-off read from the data, not from the text of the source: active = GI50 up to about 1.1 µM and inactive = higher.
Legend:
Experiment in all cases: NCI tumour cell line growth inhibition, 48 h
NCI-H23 = test system: NCI-H23
A498 = test system: A498
OVCAR-8 = test system: OVCAR-8
OVCAR-3 = test system: OVCAR-3
SK-MEL-28 = test system: SK-MEL-28
UACC-257 = test system: UACC-257
HCT-116 = test system: HCT-116
SF-295 = test system: SF-295
HL-60 = test system: HL-60
TK-10 = test system: TK-10
HCC 2998 = test system: HCC 2998
A549 = test system: A549
Malme-3M = test system: Malme-3M
MCF7 = test system: MCF7
SK-OV-3 = test system: SK-OV-3
HT-29 = test system: HT-29
SW-620 = test system: SW-620
SK-MEL-5 = test system: SK-MEL-5
RXF 393 = test system: RXF 393
SN12C = test system: SN12C
OVCAR-5 = test system: OVCAR-5
ACHN = test system: ACHN
M14 = test system: M14
MOLT-4 = test system: MOLT-4
NCI/ADR-RES = test system: NCI/ADR-RES
HOP-92 = test system: HOP-92
Hs-578T = test system: Hs-578T
MDA-MB-435 = test system: MDA-MB-435
COLO 205 = test system: COLO 205
KM12 = test system: KM12
OVCAR-4 = test system: OVCAR-4
HOP-62 = test system: HOP-62
SK-MEL-2 = test system: SK-MEL-2
K562 = test system: K562
DU-145 = test system: DU-145
UACC-62 = test system: UACC-62
SF-539 = test system: SF-539
NCI-H460 = test system: NCI-H460
CCRF-CEM = test system: CCRF-CEM
CAKI-1 = test system: CAKI-1
IGROV-1 = test system: IGROV-1
HCT-15 = test system: HCT-15
BT-549 = test system: BT-549
PC-3 = test system: PC-3
SNB-19 = test system: SNB-19
786-0 = test system: 786-0
MDA-MB-231 = test system: MDA-MB-231
EKVX = test system: EKVX
RPMI-8226 = test system: RPMI-8226
LOX IMVI = test system: LOX IMVI
NCI-H522 = test system: NCI-H522
U-251 = test system: U-251
SF-268 = test system: SF-268
T47D = test system: T47D
SNB-75 = test system: SNB-75
NCI-H226 = test system: NCI-H226
MDA-N = test system: MDA-N
UO-31 = test system: UO-31

With `COc1cc([C@@H]2c3cc4c(cc3[C@@H](c3c(O)cc(O)c5c3O[C@H](c3ccc(O)c(O)c3)[C@@H](O)C5)[C@H]3COC(=O)[C@H]23)OCO4)cc(OC)c1OC` the GI50 (NCI-H23) was 78000 nM (inactive), the GI50 (A498) was 1600 nM (inactive) and the GI50 (OVCAR-8) was 44400 nM (inactive). For the same compound, the GI50 (OVCAR-3) was 1640 nM (inactive), the GI50 (SK-MEL-28) was 48400 nM (inactive) and the GI50 (UACC-257) was 1950 nM (inactive). For the same compound, the GI50 (HCT-116) was 21100 nM (inactive), the GI50 (SF-295) was 1850 nM (inactive) and the GI50 (HL-60) was 38800 nM (inactive). For the same compound, the GI50 (TK-10) was 1790 nM (inactive), the GI50 (HCC 2998) was 1800 nM (inactive) and the GI50 (A549) was 29900 nM (inactive). For the same compound, the GI50 (Malme-3M) was > 100000 nM (inactive), the GI50 (MCF7) was 1720 nM (inactive) and the GI50 (SK-OV-3) was 1830 nM (inactive). For the same compound, the GI50 (HT-29) was 25500 nM (inactive), the GI50 (SW-620) was 32000 nM (inactive) and the GI50 (SK-MEL-5) was 17000 nM (inactive). For the same compound, the GI50 (RXF 393) was 1710 nM (inactive), the GI50 (SN12C) was 32200 nM (inactive) and the GI50 (OVCAR-5) was 27200 nM (inactive). For the same compound, the GI50 (ACHN) was 1780 nM (inactive), the GI50 (M14) was 25100 nM (inactive) and the GI50 (MOLT-4) was 30500 nM (inactive). For the same compound, the GI50 (NCI/ADR-RES) was 46000 nM (inactive), the GI50 (HOP-92) was > 100000 nM (inactive) and the GI50 (Hs-578T) was 34000 nM (inactive). The GI50 (MDA-MB-435) was 1750 nM (inactive), the GI50 (COLO 205) was 22700 nM (inactive) and the GI50 (KM12) was 1760 nM (inactive). The GI50 (OVCAR-4) was 1800 nM (inactive), the GI50 (HOP-62) was 1880 nM (inactive) and the GI50 (SK-MEL-2) was 1880 nM (inactive). For the same compound, the GI50 (K562) was 9310 nM (inactive), the GI50 (DU-145) was 1730 nM (inactive) and the GI50 (UACC-62) was 1720 nM (inactive). For the same compound, the GI50 (SF-539) was 17600 nM (inactive), the GI50 (NCI-H460) was 1870 nM (inactive) and the GI50 (CCRF-CEM) was 50700 nM (inactive). The GI50 (CAKI-1) was 1970 nM (inactive), the GI50 (IGROV-1) was 44600 nM (inactive) and the GI50 (HCT-15) was 39200 nM. For the same compound, the GI50 (BT-549) was > 100000 nM (inactive), the GI50 (PC-3) was 1750 nM (inactive) and the GI50 (SNB-19) was 38400 nM (inactive). For the same compound, the GI50 (786-0) was 24000 nM (inactive), the GI50 (MDA-MB-231) was 1670 nM (inactive) and the GI50 (EKVX) was 50100 nM (inactive). The GI50 (RPMI-8226) was 19600 nM (inactive), the GI50 (LOX IMVI) was 25600 nM (inactive) and the GI50 (NCI-H522) was 14100 nM (inactive). The GI50 (U-251) was 1690 nM (inactive), the GI50 (SF-268) was 29700 nM (inactive) and the GI50 (T47D) was 2240 nM (inactive).
`CC(/C=N\NC(=S)N1CCCCC1)=N/NC(=S)N1CCCCC1` was tested, and the GI50 (NCI-H23) was 2420 nM (inactive), the GI50 (A498) was 1350 nM (inactive) and the GI50 (OVCAR-8) was 551 nM (active). The GI50 (OVCAR-3) was 1530 nM (inactive), the GI50 (SK-MEL-28) was 4490 nM (inactive) and the GI50 (UACC-257) was 2940 nM (inactive). The GI50 (HCT-116) was 627 nM (active), the GI50 (SF-295) was 627 nM (active) and the GI50 (TK-10) was 2060 nM (inactive). For the same compound, the GI50 (HCC 2998) was 1630 nM (inactive), the GI50 (A549) was 692 nM (active) and the GI50 (Malme-3M) was 2150 nM (inactive). The GI50 (MCF7) was 1480 nM (inactive), the GI50 (SK-OV-3) was 1040 nM (active) and the GI50 (HT-29) was 931 nM (active). For the same compound, the GI50 (SW-620) was 935 nM (active), the GI50 (SK-MEL-5) was 1230 nM (inactive) and the GI50 (RXF 393) was 2010 nM (inactive). The GI50 (SN12C) was 1350 nM (inactive), the GI50 (OVCAR-5) was 2690 nM (inactive) and the GI50 (ACHN) was 611 nM (active). For the same compound, the GI50 (M14) was 1280 nM (inactive), the GI50 (MOLT-4) was 514 nM (active) and the GI50 (NCI/ADR-RES) was 759 nM (active). The GI50 (HOP-92) was 2380 nM (inactive), the GI50 (Hs-578T) was 1410 nM (inactive) and the GI50 (SNB-75) was 1690 nM (inactive). The GI50 (MDA-MB-435) was 2750 nM (inactive), the GI50 (COLO 205) was 1750 nM (inactive) and the GI50 (KM12) was 1090 nM (active). For the same compound, the GI50 (OVCAR-4) was 2300 nM (inactive), the GI50 (NCI-H226) was 1090 nM (active) and the GI50 (HOP-62) was 991 nM (active). For the same compound, the GI50 (SK-MEL-2) was 1280 nM (inactive), the GI50 (K562) was 1120 nM (active) and the GI50 (DU-145) was 547 nM (active). The GI50 (UACC-62) was 671 nM (active), the GI50 (SF-539) was 3650 nM (inactive) and the GI50 (NCI-H460) was 358 nM (active). For the same compound, the GI50 (CAKI-1) was 1330 nM (inactive), the GI50 (IGROV-1) was 1040 nM (active) and the GI50 (HCT-15) was 420 nM. For the same compound, the GI50 (BT-549) was 3030 nM (inactive), the GI50 (PC-3) was 957 nM (active) and the GI50 (SNB-19) was 2140 nM (inactive). The GI50 (MDA-N) was 2890 nM (inactive), the GI50 (786-0) was 2030 nM (inactive) and the GI50 (MDA-MB-231) was 2450 nM (inactive). For the same compound, the GI50 (EKVX) was 1880 nM (inactive), the GI50 (UO-31) was 649 nM (active) and the GI50 (RPMI-8226) was 2320 nM (inactive). For the same compound, the GI50 (LOX IMVI) was 820 nM (active), the GI50 (NCI-H522) was 1540 nM (inactive) and the GI50 (U-251) was 815 nM (active). For the same compound, the GI50 (SF-268) was 1050 nM (active).
